Results: patent publication US20250340543A1, “GPR84 ANTAGONISTS AND USES THEREOF” (Liminal BioSciences Limited, priority 2021, published 2025)

The molecules below were run against GPR84 (Homo sapiens (Human), UniProt Q9NQS5) (assay: Gai biosensor BRET assay (GPR84-mediated activation of Gai, antagonist mode against agonist ZQ-16)). Settings: HEK293 cells, 200 nmol/L GPR84 agonist ZQ-16, read-out: hGPR84 IC50.
Type: cell-based
Text: Background—The following assays can be used for determination of GPR84 activation in living HEK293 cells. […] The Gai biosensor consists of a Rluc8-tagged Gαi2 subunit, a GFP10-tagged Gγ2 subunit, and an untagged Gβ1. […] Moreover, signaling functions of GPCRs are tightly regulated by endocytosis, the targeting of receptors to endosomes and their sorting to lysosomes or recycling to the plasma membrane. […] Agonist stimulation of GPR84—Rluc8 leads to trafficking of the receptor to EEs, and ensuing increase of the donor concentration relative to the rGFP-FYVE acceptor anchored in the same cellular compartment, and thus results in an increase in BRET signal.
Plasmids—The cDNA clones for human GPR84 receptor, human Gαi2, Gβ1, and Gγ2 were obtained from the cDNA Resource Center (www.cdna.org). GFP10 (F64L, S147P, S202F and H231L variant of Aequorea victoria Green Fluorescent Protein) gBlocks gene fragments (Integrated DNA Technologies, IA) and linker were inserted in frame at the N-terminus of human Gγ2. Rluc8 (A55T, C124A, S130A, K136R, A143M, M185V, M253L, and S287L variant of the Renilla renformis luciferase) gBlocks gene fragment was inserted with linkers in frame in between residues 91 and 92 of Gαi2 or at the C-terminus of GPR84. The FYVE domain from human endofin (residues Q739 to K806) attached in frame at the C terminus of a humanized Renilla GFP (rGFP), were synthesized as gBlocks gene fragments.
Bioluminescence Resonance Energy Transfer (BRET) Measurement—HEK293 cells were transfected with GPR84—Rluc8 and rGFP-FYVE for the EEs trafficking biosensor or with GPR84, Gαi2—Rluc8, GFP10-Gγ2, and Gβ1 for the Gai biosensor. The following day, transiently transfected cells were seeded in 96-well white clear bottom microplates coated with poly-D-lysine and left in culture for 24 hours. Cells were washed once with Tyrode's buffer (140 mmol/L NaCl, 1 mmol/L CaCl2, 2.7 mmol/L KCl, 0.49 mmol/L MgCl2, 0.37 mmol/L NaH2PO4, 5.6 mmol/L glucose, 12 mmol/L NaHCO3, and 25 mmol/L HEPES, pH 7.5) before performing assays in Tyrode's buffer. Test compounds were incubated with cells for 5 (Gai) or 15 (EEs) minutes at 37° C. before addition of 200 nmol/L of the GPR84 agonist ZQ-16 (2-(Hexylthio)-6-hydroxy-4(3H)-pyrimidinone) for 5 minutes at room temperature (Gai) or 30 minutes at 37° C. (EEs). The Rluc8 substrate coelenterazine 400A (Prolume, Lakeside, AZ) was added at a final concentration of […] and BRET readings were collected using an Infinite M1000 microplate reader (Tecan, Morrisville, NC). BRET^2 readings between Rluc8 and GFP10 or rGFP were collected by sequential integration of the signals detected in the 370 to 450 nm (Rluc8) and 510 to 540 nm (GFP10, rGFP) windows. The BRET signal was calculated as the ratio of light emitted by acceptor (GFP10, rGFP) over the light emitted by donor (Rluc8). The values were corrected to net BRET by subtracting the background BRET signal obtained in cells transfected with Rluc8 constructs alone. Ligand-promoted net BRET values were calculated by subtracting vehicle-induced net BRET from ligand-induced net BRET.

Chain of GPR84 (Q9NQS5 whole entry): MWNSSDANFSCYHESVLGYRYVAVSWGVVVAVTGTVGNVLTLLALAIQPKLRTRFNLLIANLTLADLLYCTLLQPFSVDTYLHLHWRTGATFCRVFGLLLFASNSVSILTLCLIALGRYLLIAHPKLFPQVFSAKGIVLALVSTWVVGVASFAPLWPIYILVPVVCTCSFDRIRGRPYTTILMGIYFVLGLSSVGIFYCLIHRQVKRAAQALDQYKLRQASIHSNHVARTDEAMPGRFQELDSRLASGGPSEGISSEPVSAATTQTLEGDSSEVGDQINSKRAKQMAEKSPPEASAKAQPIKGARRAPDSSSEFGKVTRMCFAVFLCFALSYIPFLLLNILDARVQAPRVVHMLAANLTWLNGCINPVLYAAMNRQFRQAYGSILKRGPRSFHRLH

| IC50 | SMILES |
| --- | --- |
| < 5 µM | Cc1cc(NC(=O)c2ncccn2)cc(=O)n1[C@H](C)c1ccc(C#CC2CC2)cc1 [Compound I-360] |
| < 5 µM | Cc1cc(OCC2COCCO2)cc(=O)n1Cc1ccc(C#CC2CC2)cc1 (centres unmarked) [Compound I-35] |
| 10 to 15 µM | Cc1cc(OCc2ncccn2)cc(=O)n1[C@@H](C)c1ccc(C#CC2CC2)c(F)c1 [Compound I-326] |
| < 5 µM | Cc1cc(OCc2ncco2)cc(=O)n1[C@H](C)c1ccc(C#CC2CC2)cc1 [Compound I-296] |
| < 5 µM | COc1cc(OCC2COCCO2)cc(-c2ccc(-c3ccc(C)nc3)cc2C)n1 (centres unmarked) [Compound I-36] |
| < 5 µM | Cc1cc(OC[C@@H]2CCCOC2)cc(=O)n1[C@H](C)c1ccc(C#CC2CC2)cc1 [Compound I-232] |
| < 5 µM | Cc1cc(OCc2cscn2)cc(=O)n1[C@H](C)c1ccc(C#CC2CC2)cc1 [Compound I-294] |
| 5 to 10 µM | C(#CC1CC1)c1ccc(-c2cncc(OCC3CCCCO3)c2)cc1 (centres unmarked) [Compound I-25] |
| < 5 µM | Cc1cc(OCc2nccs2)cc(=O)n1[C@H](C)c1ccc(C#CC2CC2)cc1 [Compound I-293] |
| < 5 µM | Cc1cc(OCc2ncccn2)cc(=O)n1C(CC(F)(F)F)c1ccc(C#CC2CC2)cc1 (centres unmarked) [Compound I-324] |

Same assay, conditions: compound tested at 1 μM (concentration code A*)

| inhibition at 1 µM | SMILES |
| --- | --- |
| 25 to 50% | Cc1cc(OCc2ncccn2)cc(=O)n1[C@@H](C)c1ccc(C#CC2CC2)c(F)c1 [Compound I-326] |
| < 25% | O=C(NCC1CCCO1)N1CCc2cc(C#CC3CC3)ccc2C1 (centres unmarked) [Compound I-183] |

Same assay, conditions: compound tested at 2 μM (concentration code A)

| inhibition at 2 µM | SMILES |
| --- | --- |
| < 25% | Cc1cc(OCc2ncccn2)cc(=O)n1[C@H](C)c1cccc(C#CC2CC2)c1 [Compound I-252] |
| < 25% | Cc1c(C#CC2CC2)cccc1Cn1c(C)cc(OCc2ncccn2)cc1=O [Compound I-241] |
| > 75% | Cc1cc(OCc2cncn2C)cc(=O)n1[C@H](C)c1ccc(C#CC2CC2)cc1 [Compound I-349] |
| > 75% | Cc1cc(OCc2cncs2)cc(=O)n1[C@H](C)c1ccc(C#CC2CC2)cc1 [Compound I-311] |
| > 75% | Cc1cc(OCc2nccs2)cc(=O)n1[C@H](C)c1ccc(C#CC2CC2)cc1 [Compound I-293] |

Same assay, conditions: compound tested at 10 μM (concentration code D)

| inhibition at 10 µM | SMILES |
| --- | --- |
| < 25% | Cc1ccc(C#CC2CC2)cc1Cn1c(C)cc(OCC2COCCO2)cc1=O (centres unmarked) [Compound I-115] |
| < 25% | Cc1cc(OCC2COCCO2)cc(=O)n1C(C)c1ccc(OCC(F)(F)F)cc1 (centres unmarked) [Compound I-99] |
| 50 to 75% | Cc1cc(OCC2OCC(C)(C)CO2)cc(=O)n1[C@H](C)c1ccc(C#CC2CC2)cc1 [Compound I-227] |
| > 75% | Cc1cc(NC(=O)c2ncccn2)cc(=O)n1[C@H](C)c1ccc(C#CC2CC2)cc1 [Compound I-360] |
| < 25% | Cc1cc(OC[C@@H]2COCCO2)cc(=O)n1[C@@H](C)c1ccc(C#CC2CC2)cc1 (stereo in doubt) [Compound I-89] |
| 50 to 75% | Cc1cc(OCc2ncccn2)cc(=O)n1Cc1ccc(C#CC2CC2)cc1 [Compound I-237] |
| < 25% | Cc1cc(OCC2COCCO2)cc(=O)n1Cc1cccc(C#CCNc2ccccc2)c1 (centres unmarked) [Compound I-14] |
| > 75% | Cc1cc(OCc2ncco2)cc(=O)n1[C@H](C)c1ccc(C#CC2CC2)cc1 [Compound I-296] |
| 50 to 75% | Cc1cc(OCC2COCCO2)cc(=O)n1CCc1ccc(C#CC2CC2)cc1 (centres unmarked) [Compound I-234] |
| 25 to 50% | CC(c1ccc(C#CC2CC2)cn1)n1ccc(OC[C@@H]2COCCO2)cc1=O (some centres unmarked) [Compound I-240] |
| < 25% | Cc1cc(C#CC2CC2)cnc1C(C)n1ccc(OC[C@@H]2COCCO2)cc1=O (some centres unmarked) [Compound I-285] |
| < 25% | Cc1cc(OCc2ncccn2)cc(=O)n1C(C)c1ccc(Oc2ccccc2)cc1 (centres unmarked) [Compound I-307] |
| 25 to 50% | Cc1cc(OCC2CCOCC2)cc(=O)n1[C@H](C)c1ccc(C#CCO)cc1 (stereo in doubt) [Compound I-61] |
| > 75% | Cc1cc(OCc2ncccn2)cc(=O)n1C(C)c1ccc(C#CC2CCC2)c(F)c1 (centres unmarked) [Compound I-366] |
| > 75% | Cc1cc(OCc2ncccn2)cc(=O)n1C(C)c1cc(F)c(C#CC2CC2)c(F)c1 (centres unmarked) [Compound I-362] |
| > 75% | Cc1cc(OCc2cnc(C3CC3)cn2)cc(=O)n1[C@H](C)c1ccc(C#CC2CC2)cc1 [Compound I-323] |
| > 75% | COc1cnc(COc2cc(C)n([C@H](C)c3ccc(C#CC4CC4)cc3)c(=O)c2)nc1 [Compound I-247] |
| > 75% | Cc1cnc(COc2cc(C)n([C@H](C)c3ccc(C#CC4CC4)cc3)c(=O)c2)nc1 [Compound I-279] |
| > 75% | Cc1cc(OC[C@@H]2CCCOC2)cc(=O)n1[C@H](C)c1ccc(C#CC2CC2)cc1 [Compound I-232] |
| < 25% | CCCCCCOc1ccc(C(C)n2c(C)cc(OCc3ncccn3)cc2=O)cc1 (centres unmarked) [Compound I-345] |
| < 25% | Cc1cc(OCc2ncccn2)cc(=O)n1[C@@H](C)Cc1cccc(C#CC2CC2)c1 (stereo in doubt) [Compound I-282] |
| < 25% | Cc1cc(OCc2ncccn2)cc(=O)n1Cc1ccc(N2CC(C)(C)C2)cc1 [Compound I-242] |
| > 75% | Cc1cc(OCc2cscn2)cc(=O)n1[C@H](C)c1ccc(C#CC2CC2)cc1 [Compound I-294] |
| > 75% | Cc1cc(OCc2ncccn2)cc(=O)n1[C@H](C)c1ccc(C#CC2CCC2)cc1 [Compound I-314] |
| < 25% | Cc1cc(OCC2COCCO2)cc(=O)n1Cc1cc(C#CC2CC2)ccc1F (centres unmarked) [Compound I-143] |
| < 25% | Cc1cc(OCc2ncccn2)cc(=O)n1[C@H](C)Cc1cccc(C#CC2CC2)c1 (stereo in doubt) [Compound I-281] |
| > 75% | Cc1cc(OCc2ncccn2)cc(=O)n1C(CC(F)(F)F)c1ccc(C#CC2CC2)cc1 (centres unmarked) [Compound I-324] |
| < 25% | Cc1cc(OCc2ncccn2)cc(=O)n1[C@@H](C)Cc1ccc(C#CC2CC2)cc1 (stereo in doubt) [Compound I-277] |
| 25 to 50% | Cc1c(C#CC2CC2)cccc1Cn1c(C)cc(OC[C@H]2COCCO2)cc1=O [Compound I-49] |
| < 25% | Cc1cc(OCc2ncccn2)cc(=O)n1-c1cccc(C#CC2CC2)c1 [Compound I-245] |

Same assay, conditions: compound tested at 12.5 μM (concentration code E)

| inhibition at 12.5 µM | SMILES |
| --- | --- |
| 50 to 75% | C(#CC1CC1)c1ccc(-c2cncc(OCC3CCCCO3)c2)cc1 (centres unmarked) [Compound I-25] |

Same assay, conditions: compound tested at 15 μM (concentration code F)

| inhibition at 15 µM | SMILES |
| --- | --- |
| < 25% | FC(F)(F)COc1ccc(-c2cc(OCC3COCCO3)cc(C3CO3)c2)cc1 (centres unmarked) [Compound I-164] |

Same assay, conditions: compound tested at 25 μM (concentration code G)

| inhibition at 25 µM | SMILES |
| --- | --- |
| < 25% | COc1c(C)cc(OCC2COCCO2)nc1-c1ccc(OCC(F)(F)F)cc1 (centres unmarked) [Compound I-78] |
| < 25% | O=c1nc(OCC2COCCO2)ccn1Cc1cc(OCC(F)(F)F)ccc1Br (centres unmarked) [Compound I-77] |
| 25 to 50% | Cn1c(-c2ccc(C#CC3CC3)cc2)nc(OCC2COCCO2)cc1=O (centres unmarked) [Compound I-27] |
| 25 to 50% | Cc1cc(OCC2COCCO2)cc(=O)n1Cc1ccc(C#CC2CC2)cc1 (centres unmarked) [Compound I-35] |
| < 25% | FC(F)(F)COc1ccc(-c2cc(Cl)cc(OCC3COCCO3)c2)cc1 (centres unmarked) [Compound I-161] |
| < 25% | COc1cc(NC(=O)C2CCCCO2)cc(-c2ccc(C#CC3CC3)cc2)n1 (centres unmarked) [Compound I-75] |
| < 25% | C(#CC1CC1)c1ccc(Cc2cccc(OCC3COCCO3)c2)cc1 (centres unmarked) [Compound I-174] |
| 25 to 50% | Cc1ccc(-c2ccc(-c3nc(OCC4COCCO4)cc(=O)n3C)cc2)cn1 (centres unmarked) [Compound I-47] |
| 25 to 50% | COc1cc(OCC2COCCO2)cc(-c2ccc(-c3ccc(C)nc3)cc2C)n1 (centres unmarked) [Compound I-36] |
| < 25% | O=c1ncc(-c2ccc(C#CC3CC3)cc2)cn1C[C@H]1CCCCO1 (stereo in doubt) [Compound I-80, 5-(4-(cyclopropylethynyl)phenyl)-1-((tetrahydro-2H-pyran-2-yl)methyl)pyrimidin-2(1H)-one] |
| < 25% | COc1cc(OCC2COCCO2)cc(-c2ccc(C#CCNc3ccccc3)cc2)n1 (centres unmarked) [Compound I-130] |
| < 25% | COc1cc(OCC2COCCO2)cc(-c2cc(-c3ccc(C)nc3)ccc2C)n1 (centres unmarked) [Compound I-95] |
| 25 to 50% | Cc1cc(OCC(F)(F)F)ccc1-c1cccc(OCC2COCCO2)n1 (centres unmarked) [Compound I-33] |
| < 25% | COc1ccc(CN2CCN(c3cc(OCC4COCCO4)nc(=O)n3C)CC2)cc1 (centres unmarked) [Compound I-81] |
| < 25% | C(#CC1CC1)c1ccc(-c2nccc(OCC3CCCCO3)n2)cc1 (centres unmarked) [Compound I-127] |
| < 25% | FC(F)(F)COc1ccc(-c2cc(OCC3COCCO3)cc(C(F)(F)F)c2)cc1 (centres unmarked) [Compound I-165] |
